Starred links: 1 amine or outer side, 2 acyl side, 3 side chain; linkers in the order of their positions; H or OH if unused. Non-standard residues stand in square brackets, D forms with d. Residues, ends and D or L forms follow the SMILES beside them. Trp(βS-Me,4-F) = C[C@@H](c1c[nH]c2cccc(F)c12)[C@H](N)C(=O)O; Bip(4'-COOH) = N[C@@H](Cc1ccc(-c2ccc(C(=O)O)cc2)cc1)C(=O)O; X4 = O=C([C@H]1[C@@H](Cc2ccncc2)CCN1[*:1])[*:2]; Ala(pyrimidin-5-yl) = N[C@@H](Cc1cncnc1)C(=O)O; Phe(4-COOH) = N[C@@H](Cc1ccc(C(=O)O)cc1)C(=O)O; Pro(cis-4-F) = O=C(O)[C@@H]1C[C@H](F)CN1; d(αMeD) = C[C@@](N)(CC(=O)O)C(=O)O; 4Pal = N[C@@H](Cc1ccncc1)C(=O)O; d3Pal = N[C@H](Cc1cccnc1)C(=O)O; dCha = N[C@H](CC1CCCCC1)C(=O)O; NMeDab = CN[C@@H](CCN)C(=O)O; dCba = N[C@H](CC1CCC1)C(=O)O; Dab = NCC[C@H](N)C(=O)O; Aib = CC(C)(N)C(=O)O

The results in this text go back to US20260242419A1, “A CYCLIC PEPTIDE FOR TRAPPING INTERLEUKIN-1 BETA” (Merck Sharp & Dohme LLC, priority 2023, published 2026).

The target of the test is T1, IL-1β (Homo sapiens, UniProt P01584).
T1 construct: purchased BioLegend 579404
T1 sequence (P01584 117-269): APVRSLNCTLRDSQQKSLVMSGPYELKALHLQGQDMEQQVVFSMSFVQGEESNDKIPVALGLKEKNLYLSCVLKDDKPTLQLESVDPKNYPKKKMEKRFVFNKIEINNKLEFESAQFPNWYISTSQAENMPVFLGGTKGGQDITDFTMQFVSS
Kind of test: IL-6 assay in MRC5 cells: inhibition of IL-1β induced IL-6 secretion (AlphaLISA). Type of test: cell-based. The settings on record: inhibition of IL-1β induced IL-6 secretion in MRC5 cells; compound pre-incubated 1 hour with recombinant human IL-1β; read-out: MRC5 IC50. In a few lines: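 Compound was pre-incubated 1 h at ambient temperature with recombinant human IL-1β at 2λ EC80 before adding human lung fibroblast MRC5 cells (3000/well) in EMEM with 0.025% BSA. After overnight culture at 37 °C, 5% CO2, secreted IL-6 in conditioned medium was measured by AlphaLISA; IC50 from 4-parameter logistic fits.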
Background: Bead proximity is the source of the signal in Alpha formats.
`C[C@@H](c1c[nH]c2cccc(F)c12)[C@@H]1NC(=O)[C@@H]2C[C@H](F)CN2C(=O)CNC(=O)[C@H](Cc2ccc(C(=O)O)cc2)NC(=O)[C@H](Cc2ccncc2)NC(=O)[C@H](Cc2ccc(-c3ccc(C(=O)O)cc3)cc2)NC(=O)[C@H]2[C@@H](Cc3ccncc3)CCN2C(=O)CNC(=O)[C@H](CCN)NC(=O)[C@H](CCC(N)=O)NC(=O)[C@@H](CC2CCCCC2)NC(=O)[C@@](C)(CC(=O)O)NC(=O)[C@H](Cc2c[nH]c3ccccc23)NC(=O)[C@H](CO)NC(=O)C(C)(C)NC1=O` [Example 237] (cyclo([Bip(4'-COOH)][4Pal][Phe(4-COOH)]G[Pro(cis-4-F)][Trp(βS-Me,4-F)][Aib]SW[d(αMeD)][dCha]Q[Dab]G[X4])): the IC50 is 0.025 nM.

For `CC(C)C[C@H]1NC(=O)[C@@](C)(CC(=O)O)NC(=O)[C@H](Cc2c[nH]c3ccccc23)NC(=O)[C@H](CO)NC(=O)C(C)(C)NC(=O)[C@H]([C@@H](C)c2c[nH]c3cccc(F)c23)NC(=O)[C@@H]2C[C@H](F)CN2C(=O)CNC(=O)[C@H](Cc2ccc(C(=O)O)cc2)NC(=O)[C@H](Cc2ccncc2)NC(=O)[C@H](Cc2ccc(-c3ccc(C(=O)O)cc3)cc2)NC(=O)[C@H]2[C@@H](Cc3ccncc3)CCN2C(=O)CNC(=O)[C@H](CCN)NC(=O)[C@H](CCC(N)=O)NC1=O` [Example 238] (cyclo([Bip(4'-COOH)][4Pal][Phe(4-COOH)]G[Pro(cis-4-F)][Trp(βS-Me,4-F)][Aib]SW[d(αMeD)][dL]Q[Dab]G[X4])), the concentration for half-maximal inhibition (IC50) worked out at 0.024 nM.

As to `C[C@@H](c1c[nH]c2cccc(F)c12)[C@@H]1NC(=O)[C@@H]2C[C@H](F)CN2C(=O)CNC(=O)[C@H](Cc2ccc(C(=O)O)cc2)NC(=O)[C@H](Cc2ccncc2)NC(=O)[C@H](Cc2ccc(-c3ccc(C(=O)O)cc3)cc2)NC(=O)[C@H]2[C@@H](Cc3ccncc3)CCN2C(=O)CNC(=O)[C@H](CCN)NC(=O)[C@H](CCC(N)=O)NC(=O)[C@@H](CC2CCC2)NC(=O)[C@@](C)(CC(=O)O)NC(=O)[C@H](Cc2c[nH]c3ccccc23)NC(=O)[C@H](CO)NC(=O)C(C)(C)NC1=O` [Example 239] (cyclo([Bip(4'-COOH)][4Pal][Phe(4-COOH)]G[Pro(cis-4-F)][Trp(βS-Me,4-F)][Aib]SW[d(αMeD)][dCba]Q[Dab]G[X4])), the IC50 worked out at 0.02 nM.

As to `C[C@@H](c1c[nH]c2cccc(F)c12)[C@@H]1NC(=O)[C@@H]2C[C@H](F)CN2C(=O)CNC(=O)[C@H](Cc2ccc(C(=O)O)cc2)NC(=O)[C@H](Cc2ccncc2)NC(=O)[C@H](Cc2ccc(-c3ccc(C(=O)O)cc3)cc2)NC(=O)[C@H]2[C@@H](Cc3ccncc3)CCN2C(=O)CNC(=O)[C@H](CCN)NC(=O)[C@H](CCC(N)=O)NC(=O)[C@@H](Cc2cccnc2)NC(=O)[C@@](C)(CC(=O)O)NC(=O)[C@H](Cc2c[nH]c3ccccc23)NC(=O)[C@H](CO)NC(=O)C(C)(C)NC1=O` [Example 240] (cyclo([Bip(4'-COOH)][4Pal][Phe(4-COOH)]G[Pro(cis-4-F)][Trp(βS-Me,4-F)][Aib]SW[d(αMeD)][d3Pal]Q[Dab]G[X4])), the IC50 stood at 0.025 nM.

`C[C@@H](c1c[nH]c2cccc(F)c12)[C@@H]1NC(=O)[C@@H]2C[C@H](F)CN2C(=O)CNC(=O)[C@H](Cc2ccc(C(=O)O)cc2)NC(=O)[C@H](Cc2ccncc2)NC(=O)[C@H](Cc2ccc(-c3ccc(C(=O)O)cc3)cc2)NC(=O)[C@H]2[C@@H](Cc3ccncc3)CCN2C(=O)CNC(=O)[C@H](CCN)N(C)C(=O)[C@H](CCC(N)=O)NC(=O)[C@H](Cc2cncnc2)NC(=O)C(C)(C)NC(=O)[C@H](Cc2c[nH]c3ccccc23)NC(=O)[C@H](CO)NC(=O)C(C)(C)NC1=O` [Example 241] (cyclo([Bip(4'-COOH)][4Pal][Phe(4-COOH)]G[Pro(cis-4-F)][Trp(βS-Me,4-F)][Aib]SW[Aib][Ala(pyrimidin-5-yl)]Q[NMeDab]G[X4])): the IC50 was 0.018 nM.

For orientation: IC50 means the concentration that inhibits the measured activity by half.
